Test results as given in US7598260B2, “CDK-inhibitory pyrimidines, their production and use as pharmaceutical agents” (Bayer Schering Pharma Aktiengesellschaft, priority 2001, dated 2009).
Read-outs that look alike come from different tables or passages of the source.

What was measured:
CDK2/CycE = biological target: T1, CDK2/CycE (Homo sapiens, UniProt P24941); assay: CDK2/CycE kinase assay (enzyme test); type: biochemical; conditions: read-out: Inhibition IC50 [nM] CDK2/CycE
T1 construct: GST; purchased Dr. Dieter Marmé, Klinik für Tumorbiologie, Freiburg; host or cells: baculovirus-infected Sf9 insect cells
Description: Recombinant CDK2- and CycE-GST-fusion proteins, purified from baculovirus-infected insect cells (Sf9), are obtained by Dr. Dieter Marmé, Klinik für Tumorbiologie [Clinic for Tumor Biology], Freiburg. Histone IIIS, which is used as a kinase substrate, is purchased by the Sigma Company.
The reaction was is stopped by adding EDTA solution (250 mmol, pH 8.0, 14 μl/measuring point).
From each reaction batch, 10 μl applied to P30 filter strips (Wallac Company), and non-incorporated ^33P-ATP is removed by subjecting the filter strips to three washing cycles for 10 minutes each in 0.5% phosphoric acid. After the filter strips are dried for one hour at 70° C., the filter were are covered with scintillator strips (MeltiLex™ A, Wallac Company) and baked for one hour at 90° C. The amount of incorporated ^33P (substrate phosphorylation) is determined by scintillation measurement in a gamma-radiation measuring device (Wallac).

[1] = Solubility (Löslichkeit, g/l); type: physicochemical
[2] = system: human tumor cells (as indicated); assay: Proliferation assay, crystal violet staining, other human tumor cells as indicated in the tables; type: cell-based; conditions: 4 days incubation
Description: (§1) Cultivated human tumor cells (as indicated) are flattened out at a density of 5000 cells/measuring point in a 96-hole multititer plate in 200 μl of the corresponding growth medium. After 24 hours, the cells of one plate (zero-point plate) are colored with crystal violet (see below), while the medium of the other plates is replaced by fresh culture medium (200 μl), to which the test substances are added at various concentrations (0 μm, as well as in the range of 0.01-30 μm; the final concentration of the solvent dimethyl sulfoxide is 0.5%). The cells are incubated for 4 days in the presence of test substances. The cell proliferation is determined by coloring the cells with crystal violet: the cells are fixed by adding 20 μl/measuring point of a 11% glutaric aldehyde solution for 15 minutes at room temperature. After three washing cycles of the fixed cells with water, the plates are dried at room temperature. The cells are colored by adding 100 μl/measuring point of a 0.1% crystal violet solution (pH is set at 3 by adding acetic acid). After three washing cycles of the colored cells with water, the plates are dried at room temperature. The dye is dissolved by adding 100 μl/measuring point of a 10% acetic acid solution. The extinction is determined by photometry at a wavelength of 595 nm. The change of cell growth, in percent, is calculated by standardization of the measured values to the extinction values of the zero-point plate (=0%) and the extinction of the untreated (0 μm) cells (=100%).

MCF-7 cells = assay: Proliferation assay, crystal violet staining (cell test), MCF-7; type: cell-based; conditions: Homo sapiens
Description: as §1

[3] = DU-145, 96 h, DU145 cells, read-out: Proliferation IC50 [μM] DU145
[4] = HCT-116, 96 h, HCT116 cells, read-out: Proliferation IC50 [μM] HCT116
[5] = NCI-H460, 96 h, H460 cells, read-out: Proliferation IC50 [μM] H460
[6] = 96 h, MCF7 cells, 4 days incubation, read-out: Proliferation IC50 [μM] MCF7

| Compound | IC50 (CDK2/CycE) [nM] | Sw [1] [g/L] | IC50 [2, 3] [µM] | IC50 [2, 4] [µM] | IC50 [2, 5] [µM] | IC50 (MCF-7 cells; [6]) [µM] | Löslichkeit ([1]; comparison with known compounds) [g/L] | IC50 (MCF-7 cells; MCF7, MCF-7 cells, comparison with known compounds, read-out: MCF-7 IC50) [µM] |
| --- | --- | --- | --- | --- | --- | --- | --- | --- |
| CCC(Nc1nc(Nc2ccc(S(N)(=O)=O)cc2)ncc1Br)C(=O)OC (stereo not drawn) [Example 45] | 10 | 0.0094 | 0.5 | 1.2 | 1.7 | 2 |  |  |
| C#CCOc1nc(Nc2ccc(O)cc2)ncc1Br [Example 6, 4-[[5-Bromo-4-(2-propynyloxy)-2-pyrimidinyl]amino]-phenol] | 70 | 0.008 |  |  | 6 | 4 |  |  |
| C#CCOc1nc(Nc2ccc(C(C)=O)cc2)ncc1Br [Example 22, 1-[4-[(5-Bromo-4-(2-propynyloxy)-2-pyrimidinyl)amino]phenyl]-ethanone] | 40 | 0.003 | 1.5 | 1.5 | 1.5 | 1.2 |  |  |
| CC(C)[C@H](CO)Nc1nc(Nc2ccc(S(=O)(=O)NCCO)cc2)ncc1Br [Example 48] | 4 | 0.042 | 0.3 | 0.4 | 1 | 0.2 | 0.042 | 0.2 |
| C#CCNc1nc(Nc2cccc(S(N)(=O)=O)c2)ncc1Br [Example 36] | 30 | 0.018 | 0.6 | 0.5 | 0.6 | 0.4 |  |  |

Results, then the molecule that gave them:

| IC50 (CDK2/CycE) [nM] | Sw [1] [g/L] | IC50 [2, 3] [µM] | IC50 [2, 4] [µM] | IC50 [2, 5] [µM] | IC50 (MCF-7 cells; [6]) [µM] | Löslichkeit ([1]; comparison with known compounds) [g/L] | IC50 (MCF-7 cells; MCF7, MCF-7 cells, comparison with known compounds, read-out: MCF-7 IC50) [µM] | Compound |
| --- | --- | --- | --- | --- | --- | --- | --- | --- |
| 70 | 0.017 | 1.2 | 1.1 | 1.5 | 1.2 |  |  | C#CCNc1nc(Nc2ccc([S+](C)[O-])cc2)ncc1Br (stereo not drawn) [Example 25] |
| 8 | 0.005 | 0.3 | 0.4 | 0.4 | 1.2 |  |  | C#CCNc1nc(Nc2ccc(S(N)(=O)=O)cc2)ncc1Cl [Example 44] |
| 200 | 0.0005 | 2 | 1.2 | 1.6 | 0.2 |  |  | CC(=O)c1ccc(Nc2ncc(Br)c(NCC3CC3)n2)cc1 [Example 52] |
